Reference: USRE39591E1, “6-O-substituted ketolides having antibacterial activity” (Abbott Laboratories, priority 1996, dated 2007)

System: up to 32 different microorganisms
Experiment: in vitro antibacterial activity (MIC), agar dilution on Brain Heart Infusion (BHI) agar with Steers replicator
Format: cell-based
Details: unit assumed
Procedure, shortened: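 Up to 32 strains were replicator-inoculated (1:100, or 1:10 for Micrococcus and Streptococcus) onto BHI agar plates holding serial compound dilutions and kept 20-24 h at 35-37° C. Plates were read visually against drug-free growth controls, with erythromycin A run alongside; MIC was the lowest concentration giving no growth, slight haze or sparse colonies.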

`CC[C@H]1OC(=O)[C@H](C)C(=O)[C@H](C)[C@@H](O[C@@H]2O[C@H](C)C[C@H](N(C)C)[C@H]2O)[C@@](C)(OCC=NOCc2ccc3ccccc3c2)C[C@@H](C)C(=O)[C@H](C)[C@H]2NC(=O)O[C@@]21C` [Example 236, Compound of Formula (IX): L is CO, T is NH, R is —CH2CH═NOCH2(2-naphthyl)] was tested, and the MIC (organism code AA) was 0.2 µg/mL, the MIC (organism code BB) was 0.2 µg/mL and the MIC (organism code CC) was > 100 µg/mL. It also gave an MIC (organism code DD) of 0.2 µg/mL, an MIC (organism code EE) of 0.2 µg/mL and an MIC (organism code FF) of 0.2 µg/mL. For the same molecule, the MIC (organism code GG) was > 100 µg/mL, the MIC (organism code HH) was 0.2 µg/mL and the MIC (organism code II) was 0.05 µg/mL. For the same molecule, the MIC (organism code JJ) was 0.05 µg/mL, the MIC (organism code KK) was 0.05 µg/mL and the MIC (organism code LL) was 0.01 µg/mL. The MIC (organism code MM) was 25 µg/mL, the MIC (organism code NN) was 0.2 µg/mL and the MIC (organism code OO) was 0.05 µg/mL. For the same molecule, the MIC (organism code PP) was 0.1 µg/mL, the MIC (organism code QQ) was 50 µg/mL and the MIC (organism code RR) was 0.39 µg/mL. The MIC (organism code SS) was > 100 µg/mL, the MIC (organism code TT) was > 100 µg/mL and the MIC (organism code UU) was 0.39 µg/mL. It also gave an MIC (organism code VV) of 0.2 µg/mL, an MIC (organism code WW) of 4 µg/mL and an MIC (organism code XX) of 0.03 µg/mL. The MIC (organism code YY) was 0.03 µg/mL and the MIC (organism code ZZ) was 32 µg/mL.
`CC[C@H]1OC(=O)[C@H](C)C(=O)[C@H](C)[C@@H](O[C@@H]2O[C@H](C)C[C@H](N(C)C)[C@H]2O)[C@@](C)(OCCN)C[C@@H](C)C(=O)[C@H](C)[C@@H](O)[C@]1(C)O` [Example 8, Compound of Formula (VIII): X is O, R is —CH2CH2NH2] was tested, and the MIC (Candida albicans CCH 442 (code TT)) was > 100 µg/mL, the MIC (Enterococcus faecism ATCC 8043 (code II)) was 6.2 µg/mL and the MIC (Escherichia coli DC-2 (code SS)) was > 100 µg/mL. For the same molecule, the MIC (Escherichia coli JUHL (code QQ)) was > 100 µg/mL, the MIC (Escherichia coli SS (code RR)) was 6.2 µg/mL and the MIC (Micrococcus luteus ATCC 4698 (code PP)) was 12.5 µg/mL. For the same molecule, the MIC (Micrococcus luteus ATCC 9341 (code OO)) was 6.2 µg/mL, the MIC (Mycobacterium smegmatis ATCC 114 (code UU)) was > 100 µg/mL and the MIC (Nocardia Asteroides ATCC9970 (code VV)) was 12.5 µg/mL. For the same molecule, the MIC (Staphylococcus aureus 1775 (code GG)) was > 100 µg/mL, the MIC (Staphylococcus aureus A5177 (code BB)) was 25 µg/mL and the MIC (Staphylococcus aureus A-5278 (code CC)) was > 100 µg/mL. For the same molecule, the MIC (Staphylococcus aureus ATCC 6538P (code AA)) was 25 µg/mL, the MIC (Staphylococcus aureus CMX 553 (code FF)) was 50 µg/mL and the MIC (Staphylococcus aureus CMX 642A (code DD)) was 6.2 µg/mL. It also gave an MIC (Staphylococcus aureus NCTC10649M (code EE)) of 6.2 µg/mL, an MIC (Staphylococcus epidermidis 3519 (code HH)) of 100 µg/mL and an MIC (Streptococcus agalactiae CMX 508 (code KK)) of 6.2 µg/mL. The MIC (Streptococcus bovis A-5169 (code JJ)) was 3.1 µg/mL, the MIC (Streptococcus pyogenes 930 (code MM)) was > 100 µg/mL and the MIC (Streptococcus pyogenes EES61 (code LL)) was 6.2 µg/mL. It also gave an MIC (Streptococcus pyogenes PIU 2548 (code NN)) of 12.5 µg/mL.
In the case of `CC[C@H]1OC(=O)[C@H](C)C(=O)[C@H](C)[C@@H](O[C@@H]2O[C@H](C)C[C@H](N(C)C)[C@H]2O)[C@@](C)(OCCNCCCc2cnc3ccccc3c2)C[C@@H](C)C(=O)[C@H](C)[C@H]2NC(=O)O[C@@]21C` [Example 225, Compound of Formula (IX): L is CO, T is NH, R is —CH2CH2NHCH2CH2CH2-(3-quinolyl)], the MIC (organism code AA) was 0.2 µg/mL, the MIC (organism code BB) was 0.39 µg/mL and the MIC (organism code CC) was > 100 µg/mL. It also gave an MIC (organism code DD) of 0.39 µg/mL, an MIC (organism code EE) of 0.39 µg/mL and an MIC (organism code FF) of 0.1 µg/mL. The MIC (organism code GG) was > 100 µg/mL, the MIC (organism code HH) was 0.2 µg/mL and the MIC (organism code II) was 0.05 µg/mL. For the same molecule, the MIC (organism code JJ) was 0.01 µg/mL, the MIC (organism code KK) was 0.01 µg/mL and the MIC (organism code LL) was 0.01 µg/mL. The MIC (organism code MM) was > 100 µg/mL, the MIC (organism code NN) was 0.39 µg/mL and the MIC (organism code OO) was 0.02 µg/mL. For the same molecule, the MIC (organism code PP) was 0.1 µg/mL, the MIC (organism code QQ) was 12.5 µg/mL and the MIC (organism code RR) was 0.1 µg/mL. The MIC (organism code SS) was 12.5 µg/mL, the MIC (organism code TT) was > 100 µg/mL and the MIC (organism code UU) was 3.1 µg/mL. For the same molecule, the MIC (organism code VV) was 0.2 µg/mL, the MIC (organism code WW) was 4 µg/mL and the MIC (organism code XX) was 0.03 µg/mL. For the same molecule, the MIC (organism code YY) was 0.06 µg/mL, the MIC (organism code ZZ) was > 128 µg/mL and the MIC (organism code ZZA) was 2 µg/mL.
